# Reference: ChEMBL document CHEMBL1133799, “A disubstituted NAD+ analogue is a nanomolar inhibitor of trypanosomal glyceraldehyde-3-phosphate dehydrogenase” (Bioorg Med Chem Lett, 2001)
# Assays:
# [1] = Inhibitory concentration against Trypanosoma cruzi glyceraldehyde-3-phosphate dehydrogenase (GAPDH)
# Trypanosoma brucei = experiment: Effective dose required against Trypanosoma brucei in bloodstream; assay type: functional; settings: read-out: ED50 (the source's name)
# [2] = molecular target: glyceraldehyde-3-phosphate dehydrogenase (Leishmania mexicana); experiment: Inhibitory concentration against Leishmania mexicana glyceraldehyde-3-phosphate dehydrogenase (GAPDH)
# NIH3T3 = experiment: Effective dose required against Trypanosoma cruzi amastigotes in 3T3 Fibroblasts; assay type: functional; settings: Mus musculus, read-out: ED50 (the source's name)
# [3] = Inhibitory concentration against Trypanosoma brucei glyceraldehyde-3-phosphate dehydrogenase (GAPDH)
# [4] = Inhibitory concentration against rabbit muscle glyceraldehyde-3-phosphate dehydrogenase (GAPDH); set-up: species or system Oryctolagus cuniculus
# Trypanosoma cruzi [5] = experiment: Effective dose required against Trypanosoma cruzi amastigotes; settings: read-out: ED50 (the source's name)
# [6] = molecular target: glyceraldehyde-3-phosphate dehydrogenase (Leishmania mexicana); experiment: Inhibitory concentration against Leishmania mexicana glyceraldehyde-3-phosphate dehydrogenase (GAPDH); remark: listed apart in the source
# Trypanosoma cruzi [7] = experiment: Effective dose required against Trypanosoma cruzi amastigotes; settings: read-out: ED50 (the source's name); remark: listed apart in the source
SMILES,IC50 [1] [µM],EC50 (Trypanosoma brucei) [µM],IC50 [2] [µM],IC50 [3] [µM],IC50 [4] [µM],EC50 (Trypanosoma cruzi [5]) [µM],IC50 [6] [µM],EC50 (Trypanosoma cruzi [7]) [µM],EC50 (NIH3T3) [µM]
COc1cccc(C(=O)N[C@@H]2[C@H](O)[C@@H](COP(=O)(O)O)O[C@H]2n2cnc3c(NCc4cccc5ccccc45)ncnc32)c1,5,32,2,7,> 100,6,,,90
COc1cccc(C(=O)N[C@@H]2[C@H](O)[C@@H](CO)O[C@H]2n2cnc3c(NCc4cccc5ccccc45)ncnc32)c1,12,30,,25,> 50,,6,20,> 50
O=C(Cn1ccnc1[N+](=O)[O-])NCc1ccccc1 [BENZNIDAZOLE],,,,,,,,,> 50

# Second part, led by results:
IC50 [1] [µM],EC50 (Trypanosoma brucei) [µM],IC50 [2] [µM],IC50 [3] [µM],IC50 [4] [µM],EC50 (Trypanosoma cruzi [5]) [µM],IC50 [6] [µM],EC50 (Trypanosoma cruzi [7]) [µM],SMILES,EC50 (NIH3T3) [µM]
,,> 500,,> 500,,,,NC(=O)c1ccc[n+]([C@@H]2O[C@H](COP(=O)([O-])O)[C@@H](O)[C@H]2O)c1 [BETANMN],
,0.008,,,,,,,N=C(N)c1ccc(OCCCCCOc2ccc(C(=N)N)cc2)cc1 [PENTAMIDINE],
